This is an account of results in patent US9889093B2, “Application of andrographolide in the preparation of a pharmaceutical for treatment of inflammatory bowel disease, andrographolide enteric targeting micropellet, and method for preparation thereof” (TASLY PHARMACEUTICAL GROUP CO., LTD., priority 2013, dated 2018).

Marks after values point to notes of the source that are not given here.

Assay type in all cases: in vivo
One experiment relates to DSS-induced UC mice. Kind of experiment: DSS-induced UC mouse model, disease active index. The settings on record: mesalazine enteric tablet 227.5 mg/kg/d. An excerpt:
4 Dose Designing and Grouping • 4.1 Grouping: quarantine-qualified 84 mice were randomly divided into 6 groups: the model control group, the positive control group, the tested drug low-dose intragastric group, the tested drug high-dose intragastric group, the tested drug low-dose intracolonical group and the tested drug high-dose intracolonical group, 14 mice per group. All animals drank 5% DSS solution daily for consecutive 14 days to establish UC model. Animals were administrated with the drug for treatment on the 2nd day after being given 5% DSS drinking water. • 4.2 Dose: in this study, dose of administration of the mice in all groups was designed on the basis of client's requirements, and the same doses were adopted in both intragastric and intracolonical groups. Animals were not treated in the model control group, the positive control group (mesalazine enteric tablet, 227.5 mg·kg^−1·d^−1), the andrographolide low-dose intragastric group (60 mg·kg^1·d^−1), the andrographolide high-dose intragastric group (180 mg·kg^−1·d^−1), the andrographolide low-dose intracolonical group (60 mg·kg^−1·d^−1) and the andrographolide high-dose intracolonical group (180 mg·kg^−1·d^−1).
5 Method • 5.1 Method of making UC model: all animals drank 5% DSS solution daily for consecutive 14 days. • 5.2 Method of administration: on the 2nd day after modeling, the mice were treated intragastrically or intracolonically with the drug at 1 mL/100 g once a day for consecutive 14 days. • 5.3 Method for sampling in experiment: 2 hours after the last administration, the mice were killed by cervical vertebra dislocation and abdomen was opened to separate the colon. Along mesenteric side, the intestinal lumen was cut and rinsed with 4° C. normal saline and spread on a plastic plate. • 5.4 Method for evaluating disease active index (DAI): the disease active index was assessed at the 7th and 14th day after administration. The method was presented together with the following three parameters: the body weight loss percentages (unchanged BW: 0 score, 1˜5: 1 score, 5˜10: 2 score, 10˜15: 3 score, more than 15: 4 score), stool viscosity (normal stool: 0 score, loosen stool: 2 score, diarrhea: 4 score) and blood stool (normal stool: 0 score, occult blood stool: 2 score and positive blood stool: 4 score). Total score of three parameters was divided by 3 to give the DAI, namely DAI=(BW index score+stool character score+stool blood score)/3.
6 Observation Indices • 6.1 Observation: the general clinical symptoms in the mice were observed daily from the beginning to the end of the experiment, and the stool, mental status and death status were recorded. • 6.2 Body weight: BW was recorded weekly from the beginning to the end of the experiment. • 6.3 Calculation of DAI: DAI was calculated on the 7th and 14th day after administration so as to assess disease activity. • 6.4 The colon mucosal tissue 8˜10 cm away from the anus was sampled, embedded with paraffin and stained with routine HE. Colon mucosal injury was observed by a microscope and histological injury was scored based on the following indices: ulcer inflammatory granuloma, fibrosis and pathological degree.
(§1) Data were expressed as mean+standard deviation (x±S). All numerical variables were analyzed with SPSS13.0 software by one-way ANOVA. T-test analysis was used for inter-group comparison.

A further experiment has as its system TNBS-induced UC rats. As to the kind of experiment: TNBS-induced UC rat model, different administration routes.
Source text: 4 Dose Designing and Grouping • 4.1 Grouping: quarantine-qualified 84 rats were all used for making UC model. The successful rats were randomly divided into 6 groups: the model control group, the positive control group, the andrographolide low-dose intragastric group, the andrographolide high-dose intragastric group, the andrographolide low-dose intracolonical group and the andrographolide high-dose intracolonical group, 14 rats per group. • 4.2 Dose: the same doses were adopted in both intragastric and intracolonical groups. Animals were not treated in the model control group, the positive control group (mesalazine enteric tablet, 420 mg·kg^−1·d^−1), the andrographolide low-dose intragastric group (30 mg·kg^−1·d^−1), the andrographolide high-dose intragastric group (90 mg·kg^−1·d^−1), the andrographolide low-dose intracolonical group (30 mg·kg^−1·d^−1) and the andrographolide high-dose intracolonical group (90 mg·kg^−1·d^−1).
5. Method • 5.1 Method of making UC model: the rats were anesthetized. 2 mm-diameter latex tube was gently inserted into the position about 8 cm inside the body of the rats through anus, and TNBS in 50% ethanol solution (TNBS 125 mg/kg) was injected into intestinal lumen with an injector by one time, 0.5 ml/rat. The tail of the rat was lifted up for 30 s to make the model making agent (i.e., TNBS) fully infiltrate into the intestinal lumen of the rats. • 5.2 Method of administration: the same dose (1 mL/100 g) was adopted in both intragastric and intracolonical administration, once daily for consecutive 5 days. • 5.3 Method for sampling in experiment: 2 hours after the last administration, the rats were killed by cervical vertebra dislocation and abdomen was opened to separate the colon. Along mesenteric side, the intestinal lumen was cut and rinsed with 4° C. normal saline and spread on a plastic plate. • 5.4 Scoring method for colon gross morphological injury was referred to scoring method for mucosal injury (Bjelkengren G, Aronsen K F, Augustsson N E, etc. Radioprotective effect of local administration of lysine vasopressin and triglycyl lysine vasopressin on the rectal mucosa in rats[J]. Acta Oncol, 1995, 34(4):487-92) to record the mucosal injury score: dotted line blooding and small red spots (<1 mm): 1 score, piece blooding and big red spots (=1 mm): 3 score; and erosion and ulcer: 5 score.
as §1

Experiment [1] concerns TNBS-induced colitis mice. As to the kind of experiment: TNBS-induced UC (colitis) mouse model. The protocol: 5% (w/v) TNBS solution was diluted with double-distilled water and mixed with 50% (v/v) ethanol in equal volume to have 1.5% (w/v) TNBS solution. In the model control group, the mice were anesthetized with 1 wt % pentobarbital solution at a dose of 0.05 ml/10 g body weight. After being anesthetized, the mice were administrated with 1.5% (w/v) TNBS solution at a dose of 0.1 ml/mouse by gently inserting stomach perfusion device to about 3 cm depth via anus and arriving at the colon, and the IBD was induced. In the saline group, the saline was gently injected into the colon at a dose of 0.1 ml/mouse. In the normal control group, 50% (v/v) ethanol was gently injected into the colon at a dose of 0.1 ml mouse.
After one week adaptive feeding, all animals were randomly divided into 5 groups according to body weight, 10 mice in one group: the normal control group, the model control group, the andrographolide low-dose group (20 mg/kg/d), the andrographolide high-dose group (40 mg/kg/d) and the positive control group (Sulfasalazine group, 300 mg/kg/d). Two hours after making model, the animals in each treating groups were orally administrated twice daily with the andrographolide and once daily in the positive control group. After successive administration for 7 days, the abdomen was opened 24 hours after the last administration to observe adhesion degree between the colon and other organs. The colon was separated and weighed.
1. Body weight: after making model, body weight was measured every day to observe the change in the animals.
2. Evaluation of inflammation: the abdomen was opened 24 hours after the last administration to observe adhesion degree between the colon and other organs. Every segment of the colon was taken out and weighed to calculate the percentage of the colon weight to body weight, as the colon index. The formula was presented as follows: Decrease rate of colon specific weight=(colon index of the model control group−colon index of the treatment group)/colon index of the model control group×100%
3. Histopathological examination: a part of the colon was taken to prepare the pathological section, and the standard for score was as follows: • 0 score, no inflammatory symptoms; • 1 score, low-grade inflammation with no structure change; • 2 score, low-grade leukocyte infiltration; • 3 score, high-grade leukocyte infiltration, high vascular density, crypt extension, thickened colon wall and superficial ulcer • 4 score, high-grade leukocyte infiltrating exceeding to mucous layer, crypt extension, decrease of goblet cell, high vascular density, thickened colon wall and extensive ulcer
SPSS11.5 software was used for analysis and the data were expressed as x±S. Variance analysis was used for comparison of significant difference among groups.

In experiment [2] the test system is zebra fish Crohn's disease model. Kind of experiment: Zebra fish Crohn's disease model (TNBS), efficacy. The following applies: intestinal tissue; prednisolone 10 μM; x ± SE, n = 10.
The mark [3] stands for this setting: mesalazine enteric tablet 420 mg/kg, once daily 5 days.
Where [4] appears, read: sulfasalazine 300 mg/kg/d, once daily, 7 days.

With `Nc1ccc(O)c(C(=O)O)c1` [Positive control group, mesalazine, reference compound], in the experiment on DSS-induced UC mice, the “DAI on the 7th day” value amounted to 1.31 ± 0.14 and the “DAI on the 14th day” value was determined as 1.10 ± 0.55. In addition, in the experiment with TNBS-induced UC rats (setting [3]), the “Gross morphological injury score” value amounted to 3.16 ± 1.97 and the Ulcer ratio was 35.45* %. Further, the “Formless watery stool symptoms, course” value in the experiment with TNBS-induced UC rats (positive control group 420 mg/kg) is listed as “most of watery stool symptoms disappeared in the rats on the 5th˜6th days”.
For `O=C(O)c1cc(/N=N/c2ccc(S(=O)(=O)Nc3ccccn3)cc2)ccc1O` [Sulfasalazine, reference compound], in experiment [1] (FIG. 1, treated groups), the “Body weight increase compared with the model control group” value is given as “increased faster than that in the model control group”. For the same compound, the Colon scores in experiment [1] (histopathological score 0-4, sulfasalazine 300 mg/kg/d, 7 days) is 2.8*. In experiment [1] (percentage of colon weight to body weight, sulfasalazine 300 mg/kg/d, 7 days), this compound showed a Colon indices of 1.75 ± 0.43. In experiment [1] (setting [4]), this compound showed a Body weight of 19.13 ± 0.99 g and a Colon weight of 0.33 ± 0.06 g. Also, the “Intestinal elasticity compared with the model control group” value in experiment [1] (treated groups, after 7 days) is reported as “higher than that in the model control group”. The “Decrease rate of colon specific weight” value in experiment [1] (vs model control group, sulfasalazine 300 mg/kg/d, 7 days) was 47.87%.
Turning to `C[C@]12C=CC(=O)C=C1CC[C@@H]1[C@@H]2[C@@H](O)C[C@@]2(C)[C@H]1CC[C@]2(O)C(=O)CO` [prednisolone, reference compound], the “Number of Neutrophil” value in experiment [2] turned out to be 14 ± 0.60.
